Reference: patent publication US20240287033A1, “DEGRADERS OF TISSUE TRANSGLUTAMINASE 2 (TG2)” (Northwestern University, priority 2023, published 2024)
Entries after “also recorded” stand apart in the source; their conditions may differ.

Experiments:
full-length TG2 = molecular target: T1, full-length TG2 (Homo sapiens, UniProt P21980); assay: Isothermal titration calorimetry (ITC) binding to TG2
T1 sequence (P21980 1-687): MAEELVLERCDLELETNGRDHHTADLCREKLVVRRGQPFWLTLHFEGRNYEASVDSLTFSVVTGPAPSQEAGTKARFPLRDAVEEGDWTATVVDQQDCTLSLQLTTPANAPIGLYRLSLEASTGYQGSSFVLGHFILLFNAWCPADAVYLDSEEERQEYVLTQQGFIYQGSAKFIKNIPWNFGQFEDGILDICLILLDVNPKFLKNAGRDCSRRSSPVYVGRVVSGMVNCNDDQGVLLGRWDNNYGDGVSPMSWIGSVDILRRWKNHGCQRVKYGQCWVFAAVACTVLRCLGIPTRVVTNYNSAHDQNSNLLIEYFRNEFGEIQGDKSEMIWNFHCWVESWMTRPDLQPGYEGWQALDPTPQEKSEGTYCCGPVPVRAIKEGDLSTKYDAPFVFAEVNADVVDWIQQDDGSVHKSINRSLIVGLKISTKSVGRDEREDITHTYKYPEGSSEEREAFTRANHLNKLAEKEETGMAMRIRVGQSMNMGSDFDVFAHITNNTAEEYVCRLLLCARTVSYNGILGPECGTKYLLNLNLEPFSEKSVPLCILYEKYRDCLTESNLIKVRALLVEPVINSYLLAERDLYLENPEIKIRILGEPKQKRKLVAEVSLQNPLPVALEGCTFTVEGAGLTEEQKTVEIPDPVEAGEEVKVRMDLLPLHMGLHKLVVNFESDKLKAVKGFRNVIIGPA
Procedure: Sample Preparation. Protein dilutions in PBS with 1% DMSO were prepared from stock solutions of […] in PBS. The protein dilutions were initially equilibrated on ice for 5 min, then for 20 min at 30° C. The solutions were filtered using a […] Millipore centrifugal device just prior to insertion in the ITC cell. The solubility of the protein solutions was confirmed independently by DLS (data not shown), and the concentration of each solution (after filtration) was measured with a NanoDrop 2000 Instrument.
All compound dilutions were made in PBS, and the final DMSO concentration in each solution was carefully adjusted to 1%.
ITC Experiments. All ITC experiments were performed on an Affinity Low Volume instrument (Waters/TA Instruments) equipped with a fixed 198 μL gold cell. In each experiment, 320 μL of protein solution was loaded into the ITC cell, and 200 μL of the corresponding compound was in the syringe. The data were acquired using ITCRun data acquisition software. The incremental ITC experiments consisted of multiple 2 μL injections at 50-350-second intervals with a stirring speed of 100 revolutions per minute (rpm). The Auto Equilibrate function allowed for the equilibration of the baseline to a peak-to-peak standard deviation of less than 12 nW. For each compound, separate control experiments were performed to evaluate the heat of dilution. The control experiments were set with identical parameters but performed with reaction buffer instead of protein in the ITC cell and consisted of fewer (6-10) injections.
Data Analysis. ITC data were analyzed with Nano Analyze Software (Waters/TA Instruments) using the “independent sites” model after correction for heats of dilution.

TG2 [1] = molecular target: T2, TG2 (Homo sapiens, UniProt P21980); assay: Western blot analysis of TG2 degradation in OVCAR5 cells; format: cell-based; settings: for TG2 degradation (western blot): 6 hours, 0.1-10 μM
T2 construct: tested in multiple ovarian cancer cell lines that express TG2 for their ability to degrade the protein; endogenous in cells; host or cells: OVCAR5 and SKOV3 ovarian cancer cells
T2 sequence (P21980 1-687): T1 sequence (P21980 1-687)
Procedure: (§1) SKOV3 cells were purchased from ATCC. OVCAR5 cells were obtained from Dr. Marcus Peter at Northwestern University. Cells were maintained at 37° C. in an environment of 5% CO2 and 100% humidity. The media used for culturing the cell lines are included in Table 1. Cells lines used in all experiments were at low-passages and were confirmed to be pathogen and mycoplasma-free by Charles River Animal Diagnostic Services. Cell lines were authenticated by IDEXX BioAnalytics with short tandem repeat (STR) profiling. MG132 was obtained from SelleckChem. Anti-TG2 antibody (cat #: MAB3839-I-100UG) was purchased from Millipore Sigma, GAPDH antibody (cat #: H86504M) was purchased from Meridian Bioscience.
(§2) Briefly, SKOV3 and OVCAR5 cells were seeded on 6 cm dishes and treated with different concentrations of compounds at different time points. Proteins were extracted using RIPA buffer and quantified using the Bradford assay. After gel electrophoresis and transfer, PDVF membranes were blocked with TBS-Tween 5% BSA for one hour and incubated with primary antibodies 20 (1:1000 dilution, overnight at 4° C.). After incubation with the secondary antibody (anti rabbit/mouse-horseradish peroxidase 1:1000 dilution) for 1 h at room temperature, signal was developed using SuperSignal West Pico PLUS Chemiluminescent Substrate (Thermo Fisher Scientific cat #: 34580) and captured with an ImageQuant LAS 4000 machine. To detect additional proteins, membranes were treated with Restore Western Blot Stripping Buffer (Thermo Fisher Scientific cat #: 21059), blocked, and then incubated with primary antibody.

TG2 [2] = molecular target: T2, TG2; assay: Western blot analysis of TG2 degradation in SKOV3 cells; format: cell-based; settings: for TG2 degradation (western blot): 6 hours, up to 10 μM; for TG2 degradation with proteasome inhibitor MG132 co-treatment: MG132 20 μM 8 hrs
Procedure: as §1, §2

OVCAR5 cells [3] = assay: Cell viability assay (CCK-8), OVCAR5; format: cell-based; settings: 0.1-30 μM, 5 days
Procedure: (§3) The numbers of viable cells were quantified by using the CCK-8 assay (ApexBio) following the manufacturer's directions. Absorbance was measured by a spectrophotometer at 495 nm and used estimate the viability of the cells.

SKOV3 cells [4] = assay: Cell viability assay (CCK-8), SKOV3; format: cell-based; settings: 0.1-30 μM, 5 days
Procedure: as §3

OVCAR5 cells [5] = assay: Wound-healing (scratch) assay, OVCAR5; format: cell-based
Procedure: (§4) For the scratch assay, confluent 6-well plates were scratched with a pipette tip, washed and treated with compounds or vehicle. The plate was photographed at set time points and the area of wound closure was quantified with ImageJ. Cell migration was assessed by using Transwell inserts (8 μm pore size, Merck-Millipore, Watford, UK). Briefly, 15,000 cells were seeded in the upper chambers of trans-wells in serum-free media containing compounds or control, while media containing 10% serum was added to the lower chamber. After 18 hours, cells invaded through the transwells were fixed with warm 4% PFA for 20 min at room temperature and stained with crystal violet for 3 min. The membranes were removed, mounted on cover slides and cells were counted using a microscope at 40× magnification.

SKOV3 cells [6] = assay: Wound-healing (scratch) assay, SKOV3; format: cell-based
Procedure: as §4

OVCAR5 cells [7] = assay: Transwell migration assay, OVCAR5; format: cell-based
Procedure: as §4

SKOV3 cells [8] = assay: Transwell migration assay, SKOV3; format: cell-based
Procedure: as §4

OVCAR5 cells [9] = assay: Solid phase adhesion assay on fibronectin, OVCAR5; format: cell-based
Procedure: (§5) Briefly, wells were coated with 10 μg/ml fibronectin diluted in PBS for one hour. 30,000 cells pretreated with compounds for 6 hours were seeded and allowed to attach for 30 minutes. After washing with PBS to remove unattached cells, cells adhering to coated wells were quantified by using the CCK-8 assay (ApexBio), following the manufacturer's protocol. Relative absorbance measured at 496 nm was used to estimate the relative number of the cell attached to fibronectin coated wells.

SKOV3 cells [10] = assay: Solid phase adhesion assay on fibronectin, SKOV3; format: cell-based
Procedure: as §5

[11] = 10 μM compound 6 hrs, 10 μM VHL ligand
[12] = dosed every 6-8 hours over 24 hours, 1 or 10 μM

| decrease in affinity relative to the parental compound MT4 (full-length TG2; ITC KD ratio versus MT4) | Kd (full-length TG2; titration into TG2 at 30° C., PBS with 1% DMSO, read-out: equilibrium dissociation constant KD (ITC)) | TG2 degradation with VHL ligand as competitive inhibitor (TG2 [1]; [11]) | TG2 levels after longer treatment (western blot) (TG2 [1]; 24 hours, single dosing) | TG2 levels after longer treatment (western blot) (TG2 [2]; 24 hours, single dosing) | time of maximal TG2 degradation (TG2 [2]; higher concentrations (10 and 30 μM)) | TG2 degradation with proteasome inhibitor MG132 co-treatment (TG2 [2]; 10 μM compound 6 hrs) | Structure (SMILES) | TG2 degradation (western blot) (TG2 [1]) | TG2 levels at 24 hours after repeated dosing (TG2 [1]; [12]) | TG2 degradation with VHL ligand as competitive inhibitor (TG2 [2]; [11]) | TG2 degradation (western blot) (TG2 [2]) | TG2 levels at 24 hours after repeated dosing (TG2 [2]; [12]) | cell death / viability (OVCAR5 cells [3]) | cell death / viability (SKOV3 cells [4]) | cell migration, wound-healing assay (OVCAR5 cells [5]) | cell migration, wound-healing assay (SKOV3 cells [6]) | cell migration, transwell migration assay (OVCAR5 cells [7]) | cell migration, transwell migration assay (SKOV3 cells [8]) | adhesion of cells to fibronectin (OVCAR5 cells [9]) | adhesion of cells to fibronectin (SKOV3 cells [10]) |
| --- | --- | --- | --- | --- | --- | --- | --- | --- | --- | --- | --- | --- | --- | --- | --- | --- | --- | --- | --- | --- |
| 8.8 fold | 68.9 µM | prevented degradation of TG2 | did not induce reduction in TG2 levels | did not induce reduction in TG2 levels | 6 h |  | Cc1cc(N(C)CCOCCOCCOCCOCCOCCC(=O)N[C@H](C(=O)N2C[C@H](O)C[C@H]2C(=O)NCc2ccc(-c3scnc3C)cc2)C(C)(C)C)nc(Nc2ccc(NC(=O)Cc3ccccc3)cc2)n1 [Compound 11, (2S,4R)-1-((S)-22-(tert-buty)-2-(6-methyl-2-((4-(2-phenylacetamido)phenyl)amino)pyrimidin-4-yl)-20-oxo-5,8,11,14,17-pentaoxa-2,21-diazatricosan-23-oyl)-4-hydroxy-N-(4-(4-methylthiazol-5-yl)benzyl)pyrrolidine-2-carboxamide] | significantly reduced the level of TG2; also recorded: Degradation of TG2 was observed | persistent and dose-dependent decreased TG2 levels | prevented degradation of TG2; also recorded: but not when combined with VHL ligand | significantly reduced the level of TG2; also recorded: Degradation of TG2 was observed | persistent and dose-dependent decreased TG2 levels | No significant cell death; also recorded: no cell death was observed | No significant cell death; also recorded: no cell death was observed | potently inhibited the migration | similarly inhibited the migration | potently inhibited the migration | similarly inhibited the migration | significantly reduced the adhesion | significantly reduced the adhesion |
|  |  |  |  |  |  |  | Cc1cc(N(C)CCOCCOCCOCCOCCOCCC(=O)N[C@H](C(=O)N2C[C@@H](O)C[C@H]2C(=O)NCc2ccc(-c3scnc3C)cc2)C(C)(C)C)nc(Nc2ccc(NC(=O)Cc3ccccc3)cc2)n1 [Compound 13, (2S,4S)-1-((S)-22-(tert-butyl)-2-(6-methyl-2-((4-(2-phenylacetamido)phenyl)amino)pyrimidin-4-yl)-20-oxo-5,8,11,14,17-pentaoxa-2,21-diazatricosan-23-oyl)-4-hydroxy-N-(4-(4-methylthiazol-5-yl)benzyl)pyrrolidine-2-carboxamide] | did not induce TG2 degradation; also recorded: No degradation of TG2 was observed |  |  | did not induce TG2 degradation; also recorded: No degradation of TG2 was observed |  |  |  | did not affect cell migration | did not affect cell migration |  |  | did not affect | did not affect |
|  |  |  |  |  |  | blocked | Cc1cc(N(C)CCOCCSC(C)(C)[C@H](NC(=O)C2(F)CC2)C(=O)N2C[C@H](O)C[C@H]2C(=O)NCc2ccc(-c3scnc3C)cc2)nc(Nc2ccc(NC(=O)Cc3ccccc3)cc2)n1 [Compound P405] |  |  |  | degrade TG2 |  |  |  |  | reduce the migration |  |  |  | reduce the migration and adhesion capability |
|  |  |  |  |  |  | blocked | Cc1cc(N(C)CCOCCOCCOCCSC(C)(C)[C@H](NC(=O)C2(F)CC2)C(=O)N2C[C@H](O)C[C@H]2C(=O)NCc2ccc(-c3scnc3C)cc2)nc(Nc2ccc(NC(=O)Cc3ccccc3)cc2)n1 [Compound P404] |  |  |  | degrade TG2 |  |  |  |  | reduce the migration |  |  |  | reduce the migration and adhesion capability |
|  |  |  |  |  |  |  | Cc1cc(N(C)CCOCCC(=O)N[C@H](C(=O)N2C[C@@H](O)C[C@H]2C(=O)NCc2ccc(-c3scnc3C)cc2)C(C)(C)C)nc(Nc2ccc(NC(=O)Cc3ccccc3)cc2)n1 [Compound 12, (2S,4S)-1-((S)-3,3-dimethyl-2-(3-(2-(methyl(6-methyl-2-((4-(2-phenylacetamido)phenyl)amino)pyrimidin-4-yl)amino)ethoxy)propanamido)butanoyl)-4-hydroxy-N-(4-(4-methylthiazol-5-yl)benzyl)pyrrolidine-2-carboxamide] | did not induce TG2 degradation; also recorded: No degradation of TG2 was observed |  |  | did not induce TG2 degradation; also recorded: No degradation of TG2 was observed |  |  |  | did not affect cell migration | did not affect cell migration |  |  | did not affect | did not affect |
